Read-outs that look alike come from different tables or passages of the source.
Legend:
HCT116 = assay: MTS cytotoxicity assay, 72 h; assay type: cell-based; settings: Homo sapiens, HCT-116, 72 h, read-out: IC50 HCT116
panel of cell lines [1] = tested on: panel of cell lines
MRC-5 = assay: MTS cytotoxicity assay, 72 h; assay type: cell-based; settings: Homo sapiens, MRC5, 72 h, read-out: IC50 MRC-5
CCRF-CEM lymphoblasts = assay: FACS analysis of cell cycle, apoptosis, mitosis and polyploidy; settings: for Mitosis: phospho-Histone (Ser10); for Apoptosis: sub-G0/G1 DNA content, % of positive cells
HCT116p53–/– = assay: MTS cytotoxicity assay, 72 h; assay type: cell-based; settings: read-out: IC50 HCT116p53–/–
[2] = tested on: microtubules in U2OS cells; assay: Immunofluorescence of microtubule organization; assay type: cell-based, human; settings: 10 μM, 15 h
Protocol: DMSO at appropriate dilution served as control.
Immunofluorescence microscopy on formaldehyde-fixed, Triton X-100 extracted cells (F/Tx) was performed as previously described. Extraction and fixation steps were carried out in a microtubule stabilizing buffer consisting of 0.1 M KMes, 2 mM EGTA, 2 mM MgCl2, 4% polyethylene glycol 6000, pH 6.9. Cells were fixed for 30 min in 3% formaldehyde before extraction for 4 min with 0.5% Triton X-100 at 37 °C. Mouse monoclonal antibody TU-01 (IgG1) directed to α-tubulin , in the form of hybridoma spent culture medium was diluted 1:10. The DyLight 549-conjugated antimouse antibody (Jackson Immunoresearch Laboratories, West Grove, PA, USA) was diluted 1:500. Samples were mounted in MOWIOL 4–88 (Calbiochem, San Diego, CA, USA) supplemented with 4,6-diamidino-2-phenylindole (DAPI; Sigma-Aldrich, St. Louis, MO, USA) and examined with an Olympus AX-70 Provis microscope (Olympus, Hamburg, Germany) equipped with a 60×/1.0 water objective.

HUVEC = assay: MTS cytotoxicity assay, 72 h; assay type: cell-based; settings: Homo sapiens, 3-day incubation, mean ± SD
K562-TAX = assay: MTS cytotoxicity assay, 72 h; assay type: cell-based; settings: read-out: IC50 K562-TAX
CCRF-CEM = assay: MTS cytotoxicity assay, 72 h; assay type: cell-based; settings: Homo sapiens, CCRF-CEM, 72 h, read-out: IC50 CCRF-CEM, MTS assay, 3-day incubation, mean ± SD of 3 experiments
CEM-DNR = assay: MTS cytotoxicity assay, 72 h; assay type: cell-based; settings: Homo sapiens, read-out: IC50 CEM-DNR
BJ = assay: MTS cytotoxicity assay, 72 h; assay type: cell-based; settings: Homo sapiens, read-out: IC50 BJ
K562 = assay: MTS cytotoxicity assay, 72 h; assay type: cell-based; settings: Homo sapiens, K562, 72 h, read-out: IC50 K562
U2OS = assay: MTS cytotoxicity assay, 72 h; assay type: cell-based, human
panel of cell lines [3] = assay: cells; settings: read-out: IC50 values, cancer cell lines
[4] = Homo sapiens, U2OS, 72 h, read-out: IC50 U2OS, MTS assay, 3-day incubation, mean ± SD
[5] = read-out: IC50 U2OS, MTS assay, 3-day incubation, mean ± SD

Row | SMILES | IC50 (HCT116) | RI (resistance index) (panel of cell lines [1]) | SI (selectivity index) (panel of cell lines [1]) | IC50 (MRC-5) | G0/G1 (CCRF-CEM lymphoblasts; 1×IC50, 24 h) | G2/M (CCRF-CEM lymphoblasts; 1×IC50, 24 h) | Polyploid cells (CCRF-CEM lymphoblasts; 1×IC50, 24 h) | S (CCRF-CEM lymphoblasts; 1×IC50, 24 h) | Mitosis (CCRF-CEM lymphoblasts; 1×IC50, 24 h) | Apoptosis (CCRF-CEM lymphoblasts; 1×IC50, 24 h) | G0/G1 (CCRF-CEM lymphoblasts; 5×IC50, 24 h) | Polyploid cells (CCRF-CEM lymphoblasts; 5×IC50, 24 h) | S (CCRF-CEM lymphoblasts; 5×IC50, 24 h) | Mitosis (CCRF-CEM lymphoblasts; 5×IC50, 24 h) | Apoptosis (CCRF-CEM lymphoblasts; 5×IC50, 24 h) | IC50 (HCT116p53–/–) | IC50 (HUVEC) | IC50 (CCRF-CEM) | IC50 (BJ) | IC50 (K562) | other results
1 | COc1cc2c(c(OC)c1OC)-c1ccc(OC)c(=O)cc1[C@@H](NC(=O)CCC1=C3C(C)=CC(C)=[N+]3[B-](F)(F)n3c(C)cc(C)c31)CC2 [CB1] | 0.5 ± 0.032 µM | 4.16 | 13.66 | 5.69 ± 0.639 µM | 36.69% | 38.6% | 17.25% | 24.71% | 7.96% | 5.32% | 50.26% | 19.14% | 1.72% | 17.85% | 11.73% | 0.58 ± 0.063 µM | 0.67 ± 0.033 µM | 0.4 ± 0.018 µM | 8.35 ± 0.419 µM | 0.45 ± 0.054 µM | G2/M (CCRF-CEM lymphoblasts; 5×IC50, 24 h): 48.02%; effect on microtubules (in words) [2]: completely disrupted microtubules; IC50 (K562-TAX): 1.47 ± 0.361 µM; IC50 (CEM-DNR): 2.07 ± 0.212 µM
2 | COc1cc2c(c(OC)c1OC)-c1ccc(OC)c(=O)cc1[C@@H](n1cc(CCCCCCCCC3=C4C(C)=CC(C)=[N+]4[B-](F)(F)n4c(C)cc(C)c43)nn1)CC2 [CB5] | 0.64 ± 0.065 µM | 2.49 | >74.18 | > 50 µM | 11.02% | 85.47% | 24.32% | 3.51% | 42.49% | 9.64% | 5.27% | 26.07% | 0.77% | 60.70% | 10.96% | 0.77 ± 0.063 µM | 0.45 ± 0.012 µM | 0.42 ± 0.014 µM | > 50 µM | 0.5 ± 0.122 µM | IC50 (U2OS; [4]): < 2 µM; IC50 (U2OS; [5]): 1.04 ± 0.141 µM; effect on microtubules (in words) [2]: completely disrupted microtubules; IC50 (K562-TAX): 0.9 ± 0.026 µM; IC50 (CEM-DNR): 1.39 ± 0.139 µM
3 | COc1cc(C2=C3C(C)=CC(C)=[N+]3[B-](F)(F)n3c(C)cc(C)c32)ccc1OCc1cn([C@H]2CCc3cc(OC)c(OC)c(OC)c3-c3ccc(OC)c(=O)cc32)nn1 [CB6] | 0.43 ± 0.0325 µM | – | – | > 50 µM | 12.32% | 55.58% | 23.13% | 32.1% | 29.41% | 7.55% | 3.72% | 24.76% | 1.88% | 61.11% | 14.32% | 0.38 ± 0.057 µM | < 0.0122 µM | 0.14 ± 0.01 µM | > 50 µM | 0.026 ± 0.001 µM | cytotoxic activity across the cell line panel (in words) (panel of cell lines [1]): changed only slightly; effect on microtubules (in words) [2]: microtubule remnants were detectable
4 | COc1cc2c(c(OC)c1OC)-c1ccc(OC)c(=O)cc1[C@@H](n1cc(CCCC3=C4C(C)=CC(C)=[N+]4[B-](F)(F)n4c(C)cc(C)c43)[n+](C)n1)CC2 [CB7] | 1.51 ± 0.33 µM | 1.22 | >38.40 | > 50 µM | 26.66% | 45.89% | 21.60% | 27.45% | 19.77% | 13.02% | 6.62% | 23.77% | 4.54% | 68.32% | 14.67% | 1.43 ± 0.162 µM | 1.4 ± 0.104 µM | 0.84 ± 0.058 µM | > 50 µM | 0.77 ± 0.0224 µM | IC50 (U2OS; [4]): < 2 µM; IC50 (U2OS; [5]): 1.96 ± 0.096 µM; G2/M (CCRF-CEM lymphoblasts; 5×IC50, 24 h): 88.84%; effect on microtubules (in words) [2]: microtubule remnants were detectable; IC50 (K562-TAX): 0.62 ± 0.084 µM; IC50 (CEM-DNR): 1.34 ± 0.229 µM
5 | COc1cc2c(c(OC)c1OC)-c1ccc(N(C)CCCCC3=C4C(C)=CC(C)=[N+]4[B-](F)(F)n4c(C)cc(C)c43)c(=O)cc1[C@@H](NC(C)=O)CC2 [CB11] | 4.93 ± 0.729 µM | 2.45 | >12.87 | > 50 µM | 35.98% | 30.38% | 13.64% | 33.64% | 4.83% | 5.26% | 10.48% | 24.88% | 10.23% | 59.86% | 16.42% | 5.52 ± 0.762 µM | 5.52 ± 0.29 µM | 2.5 ± 0.567 µM | > 50 µM | 1.85 ± 0.204 µM | IC50 (panel of cell lines [3]): 2.5 to 9 µM; IC50 (U2OS; [4]): 4.62 ± 1.23 µM; G2/M (CCRF-CEM lymphoblasts; 5×IC50, 24 h): 79.29%; IC50 (K562-TAX): 5.18 ± 0.198 µM; IC50 (CEM-DNR): 5.49 ± 0.935 µM
6 | COc1cc2c(c(OC)c1OC)-c1ccc(N(C)C(=O)CCC3=C4C(C)=CC(C)=[N+]4[B-](F)(F)n4c(C)cc(C)c43)c(=O)cc1[C@@H](NC(C)=O)CC2 [CB12] | 8.09 ± 0.268 µM | 4.50 | >7.07 | > 50 µM | 32.27% | 26.62% | 18.91% | 41.12% | 9.86% | 4.12% | 21.05% | 23.39% | 25.39% | 23.11% | 10.47% | 8.35 ± 0.549 µM | 8.24 ± 0.77 µM | 5.54 ± 0.475 µM | > 50 µM | 4.25 ± 0.89 µM | IC50 (panel of cell lines [3]): 2.5 to 9 µM; IC50 (U2OS; [4]): 9.12 ± 0.174 µM; G2/M (CCRF-CEM lymphoblasts; 5×IC50, 24 h): 53.56%; IC50 (K562-TAX): 8.07 ± 0.706 µM; IC50 (CEM-DNR): 36 ± 2.04 µM
